From patent US20240189294A1, “METHOD FOR REGULATING SEBACEOUS GLAND” (BUDDHIST TZU CHI MEDICAL FOUNDATION, priority 2021, published 2024)
Entries after “also recorded” stand apart in the source; their conditions may differ.

How the values were obtained:
hair follicles = assay: Topical application of CK1 inhibitors on shaved back skin of wild-type mice: hair growth phenotype and H&E staining (hair cycle phase); type: in vivo, C57BL/6J mice; conditions: topical 0.04 mg every other day, total 0.12 mg per 1 cm^2, mice 8 weeks old; for hair growth on the back skin (phenotype): three times, N=3, FIG. 5B; for hair cycle phase, H&E staining of back skin: FIG. 5C
Method: K14-Cr-ERT2-CK1α^fl/fl mice, Mc1r^549del mice and Mc1r^549del mice with CK1α ablation in keratinocytes (CK1α^−/−Mc1r^549del) were collaboratively generated in National Laboratory Animal Center (NLAC) in Tainan, Taiwan, and wild type C57BL/6J mice were also purchased from NLAC. Experiments and animal caring were performed in the Laboratory Animal Center, Tzu Chi University, Hualien, Taiwan, with the approval of Animal Care Committee in accordance with legal and ethical standards. Both male and female mice were used. The hair cycle in wild C57BL/6J mice is related to the age; weeks 4 to 6 are an anagen phase, weeks 6 to 7 are a catagen phase, and weeks 7 to 12 are a telogen phase.
A51 is a gift from Dr. Yinon Ben-Nerian's lab (which was published in Cell, Volume 175, Issue 1, 20 Sep. 2018, pages 171-185). For topical application onto mouse skin, 1 mg of CKI was dissolved in 6 μL dimethyl sulfoxide (DMSO) and mixed with 54 μL of vehicle which contained 60% of white wax and 40% of paraffin oil. The final working concentration is 0.1 mg/cm^2.
D4476 was purchased from Sigma Aldrich (#D1944). For topical application onto mouse skin, 4 mg of CKI was dissolved in 1 mL DMSO as the stock. 10 μL stock was mixed with 40 μL of vehicle which contained 60% of white wax and 40% of paraffin oil. The final working concentration is 0.04 mg/cm^2.
IC261 was purchased from Sigma Aldrich (#40090). For topical application onto mouse skin, 4 mg of CKI was dissolved in 1 mL DMSO as the stock. 10 μL stock was mixed with 40 μL of vehicle which contained 60% of white wax and 40% of paraffin oil. The final working concentration is 0.04 mg/cm^2.
(§1) Mice at 8 weeks old were shaved to remove hair on back skin and cleaned with 75% ethanol. Topical CKIs were applied on the back skin 3 times in one week, and the tissue was harvested on day 7, day 14 and some on day 28 after application of CKIs. The tissue was analyzed by the methods described below.
(§2) Skin samples were harvested at indicated timings for tissue analysis. Paraffin-embedded specimens were cut into 5-μm sections. After deparaffinization (with tissue slides being soaked in xylene three times, each time for 5 min) and rehydration (with slides being incubated in the following graded series of ethanol: 100%, 100%, 95%, 90% and 70%, 5 min each), the slides were rinsed with distilled water for 5 min.
For histopathology by H&E staining, skin tissues were fixed overnight in 10% neutral buffered formalin at 4° C. and then transferred to 70% ethanol before being processed and embedded in paraffin. Paraffin sections were then stained with H&E.

β-catenin = assay: Immunohistochemical staining of β-catenin in back skin after topical CK1 inhibitor; type: in vivo, C57BL/6J mice; conditions: topical 0.04 mg every other day, total 0.12 mg per 1 cm^2, mice 8 weeks old; FIG. 5D
Method: as §1, §2
Paraffin sections were incubated in a humidity chamber for 15 min at 60° C. Sections were deparaffinized in two changes of xylene for 5 min each and hydrated in two changes of 100% ethanol for 5 min each, then in 95% and 80% ethanol for 5 min each, and finally rinsed in distilled water. Antigen retrieval was enhanced by microwaving the slides in a citrate buffer (DAKO; pH 6.0) for 20 min. Endogenous peroxidase activity was quenched with 3% hydrogen peroxide in methanol. After blocking, sections were incubated overnight at 4° C. with β-catenin antibody (1/100; BD Bioscience). Secondary antibodies used were horseradish peroxidase (HRP)-polymer anti-mouse antibodies (Nichirei). […]

[1] = system: hair follicle pigmentation; assay: Fontana-Masson staining of hair follicle pigmentation after topical CK1 inhibitor; type: in vivo, C57BL/6J mice; conditions: topical 0.04 mg every other day, total 0.12 mg per 1 cm^2, mice 8 weeks old (telogen); FIG. 5E
Method: as §1, §2
Fontana-Masson staining and H&E staining were performed by using the kit from ScyTek Laboratories, Inc. according to the manufacturer's instructions.
Briefly, for Fontana-Masson staining, a freshly mixed ammoniacal silver solution was placed in a 58° C. to 60° C. water bath and allowed to equilibrate. The slides were incubated in a warmed ammoniacal silver solution for 30 to 60 min or until the tissue sections became yellow/brown in color, and were then rinsed with distilled water for 3 to 5 seconds (s). The slides were incubated in a gold chloride solution (0.2%) for 30 s and were then rinsed with distilled water for 3 to 5 s. […]

PPARγ = assay: Western blot of PPARγ in SZ95 cells; type: cell-based, human; conditions: IC261 at different concentrations vs DMSO, FIG. 8C
Method: (§3) For experiments involving tissues, the tissues were homogenized and lysed in 1× tissue protein extraction reagent (Thermo Fisher) containing protease inhibitor (Millipore) and kept on ice; for experiments involving cells, cell pellet was collected and lysed in 1×radioimmunoprecipitation assay (RIPA) lysis buffer containing protease inhibitor (Millipore) and kept on ice. The total protein concentration was determined using Protein Assay Dye Reagent Concentrate (Bio-Rad) following manufacturer's instruction with a microplate reader. Sample was diluted in SDS-PAGE Sample Buffer (Bio-Rad) and heated at 95° C. for 5 minutes. The protein sample was then resolved on SDS-PAGE gels (TGX FastCast acrylamide solutions, Bio-Rad) and transferred onto poly(vinylidene fluoride) (PVDF) membranes (Millipore). 5% BSA was used, and then the membranes were incubated with primary antibodies overnight at 4° C. The membranes were then washed by Tris-buffered saline with Tween 20 (TBST) and incubated with secondary antibodies for 1 hour at room temperature. The signal was detected using iBright FL1000 Imaging System from Thermo Fisher Scientific.
(§4) The antibodies used in immunohistochemistry (IHC) and Western blotting (WB) in this disclosure were listed in Table 1 below, where manufacturers, catalogue number and the dilution ratio used were provided. […]

c-Myc = assay: Western blot of c-Myc in SZ95 cells; type: cell-based, human; conditions: IC261 at different concentrations vs DMSO, FIG. 8C
Method: as §3, §4

[2] = system: SZ95 cells (human sebocyte cell line); assay: WST-1 assay in SZ95 cells; type: cell-based; conditions: 1.5×10^4 cells/well, treated for 24 hr, FIG. 8B
Method: SZ95 cells (human sebocyte cell line) were maintained in Sebomed basal Medium (Sigma) supplemented with 10% FBS and 5 ng/mL epidermal growth factor under standard cell culture conditions of 37° C. and 5% CO2.
WST-1 assay. Seeding cells with density 1.5×10^4 cells/well in 96-well plate, incubate overnight. Remove medium and add 100 μL fresh medium contain various amount of IC261 (1, 50, 100, 200, 500, 1000 nM) in each well, incubate for 24 hr. Add 10 μL/well WST-1, incubate for 4 hr. Measure the absorbance of OD 450 nm and OD 655 nm by ELISA reader.

LC3B = assay: Western blot of LC3B (autophagy marker) in SZ95 cells; type: cell-based, human; conditions: FIG. 8D
Method: as §3, §4

Structure (SMILES) | hair growth on the back skin (phenotype) (hair follicles) | hair cycle phase, H&E staining of back skin (hair follicles) | expression of β-catenin, immunohistochemical staining (β-catenin) | hair follicle pigmentation, Fontana-Masson staining [1] | PPARγ expression (biomarker for adipogenesis) (PPARγ) | c-Myc expression (biomarker for undifferentiated sebocytes) (c-Myc) | IC50 [2] | LC3B expression (marker for autophagy) (LC3B)
NC(=O)c1ccc(-c2nc(-c3ccc4c(c3)OCCO4)c(-c3ccccn3)[nH]2)cc1 [D4476] | significantly induced hair growth | induces an anagen phase of the hair cycle | increased the expression of β-catenin in the matrix of hair follicle | induce hair follicle growth and pigmented hair formation; also recorded: Heavily pigmented hair follicles and shafts |  |  |  | 
COc1cc(OC)c(C=C2C(O)=Nc3ccccc32)c(OC)c1 [IC261] | significantly induced hair growth | induces an anagen phase of the hair cycle | increased the expression of β-catenin in the matrix of hair follicle | induce hair follicle growth and pigmented hair formation; also recorded: Heavily pigmented hair follicles and shafts | decreased | increased | ~0.476 µM | increase with a dose dependent manner
